# Tested on: PANC1 pancreatic adenocarcinoma cells
# Test: PANC1 tumor growth in vivo
# Set-up: species or system nude mice
# Settings: 60 mg/kg ip bolus every 48 hours, 5 doses
# Description: Dose: 60 mg/kg ip bolus injection every 48 hours. 5 total doses. 5-7 tumors per group. PANC1 pancreatic adenocarcinoma cell line.
# PANC1 pancreatic adenocarcinoma cells were implanted subcutaneously into nude mice. Mice were then given a bolus injection of one of the inventive irestatins (1401, 9337, 3611 or 9389) at a dose of 60 mg/kg every 48 hours for a total of 5 doses, with 5-7 tumors being treated per group.
compound,measurement,value
Cc1csc(NC(=O)CSc2nc3c(c(C(F)(F)F)c2C#N)CCC3)n1 [Compound 9389],tumor growth,"significant tumor growth was observed in untreated mice, but not in mice treated with the irestatins"
